Calls of active or inactive are those of the source.
Columns and labels:
[1] = target: Peroxisome proliferator-activated receptor gamma/Nuclear receptor coactivator 1 (Homo sapiens, UniProt P37231); test: (§1) TR-FRET dose response biochemical High Throughput Screening assay for agonists of the steroid receptor coactivator 1 (SRC-1) recruitment by the peroxisome proliferator-activated receptor gamma (PPAR gamma): non-selective agonists. [Related pubchem assays (depositor defined):AID1300, AID1808, AID504735, AID631]; type: protein assay
[2] = target: Peroxisome proliferator-activated receptor gamma/Nuclear receptor coactivator 3 (Homo sapiens, UniProt P37231); test: as §1, with “3 (SRC-3)” for “1 (SRC-1)”, “assays: 1301 (Confirmation screen.), 1048 (Primary screen.)]” for “assays (depositor defined):AID1300, AID1808, AID504735, AID631]”; type: functional
[3] = target: Peroxisome proliferator-activated receptor gamma/Nuclear receptor coactivator 2 (Homo sapiens, UniProt P37231); test: TR-FRET dose response biochemical High Throughput Screening assay for agonists of the steroid receptor coactivator 2 (SRC-2) recruitment by the peroxisome proliferator-activated receptor gamma (PPAR gamma): non-selective agonists. [Related pubchem assays: 1297, 1032 ]; type: functional
Sequence of Peroxisome proliferator-activated receptor gamma/Nuclear receptor coactivator 2 (P37231 whole entry): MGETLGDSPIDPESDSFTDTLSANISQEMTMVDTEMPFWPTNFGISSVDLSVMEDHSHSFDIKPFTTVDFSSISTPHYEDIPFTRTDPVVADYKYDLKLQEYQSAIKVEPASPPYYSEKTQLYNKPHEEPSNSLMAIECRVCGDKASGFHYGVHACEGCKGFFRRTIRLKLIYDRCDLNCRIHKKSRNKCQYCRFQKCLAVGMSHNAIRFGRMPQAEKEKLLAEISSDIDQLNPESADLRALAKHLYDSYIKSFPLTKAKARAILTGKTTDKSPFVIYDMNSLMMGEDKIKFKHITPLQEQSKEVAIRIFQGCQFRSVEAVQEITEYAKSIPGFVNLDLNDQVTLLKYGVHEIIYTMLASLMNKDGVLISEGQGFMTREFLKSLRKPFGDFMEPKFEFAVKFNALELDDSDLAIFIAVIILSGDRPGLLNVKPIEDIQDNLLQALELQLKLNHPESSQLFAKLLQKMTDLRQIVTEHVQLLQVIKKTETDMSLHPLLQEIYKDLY
Sequence of Peroxisome proliferator-activated receptor gamma/Nuclear receptor coactivator 2 (Q15596 whole entry, further chain): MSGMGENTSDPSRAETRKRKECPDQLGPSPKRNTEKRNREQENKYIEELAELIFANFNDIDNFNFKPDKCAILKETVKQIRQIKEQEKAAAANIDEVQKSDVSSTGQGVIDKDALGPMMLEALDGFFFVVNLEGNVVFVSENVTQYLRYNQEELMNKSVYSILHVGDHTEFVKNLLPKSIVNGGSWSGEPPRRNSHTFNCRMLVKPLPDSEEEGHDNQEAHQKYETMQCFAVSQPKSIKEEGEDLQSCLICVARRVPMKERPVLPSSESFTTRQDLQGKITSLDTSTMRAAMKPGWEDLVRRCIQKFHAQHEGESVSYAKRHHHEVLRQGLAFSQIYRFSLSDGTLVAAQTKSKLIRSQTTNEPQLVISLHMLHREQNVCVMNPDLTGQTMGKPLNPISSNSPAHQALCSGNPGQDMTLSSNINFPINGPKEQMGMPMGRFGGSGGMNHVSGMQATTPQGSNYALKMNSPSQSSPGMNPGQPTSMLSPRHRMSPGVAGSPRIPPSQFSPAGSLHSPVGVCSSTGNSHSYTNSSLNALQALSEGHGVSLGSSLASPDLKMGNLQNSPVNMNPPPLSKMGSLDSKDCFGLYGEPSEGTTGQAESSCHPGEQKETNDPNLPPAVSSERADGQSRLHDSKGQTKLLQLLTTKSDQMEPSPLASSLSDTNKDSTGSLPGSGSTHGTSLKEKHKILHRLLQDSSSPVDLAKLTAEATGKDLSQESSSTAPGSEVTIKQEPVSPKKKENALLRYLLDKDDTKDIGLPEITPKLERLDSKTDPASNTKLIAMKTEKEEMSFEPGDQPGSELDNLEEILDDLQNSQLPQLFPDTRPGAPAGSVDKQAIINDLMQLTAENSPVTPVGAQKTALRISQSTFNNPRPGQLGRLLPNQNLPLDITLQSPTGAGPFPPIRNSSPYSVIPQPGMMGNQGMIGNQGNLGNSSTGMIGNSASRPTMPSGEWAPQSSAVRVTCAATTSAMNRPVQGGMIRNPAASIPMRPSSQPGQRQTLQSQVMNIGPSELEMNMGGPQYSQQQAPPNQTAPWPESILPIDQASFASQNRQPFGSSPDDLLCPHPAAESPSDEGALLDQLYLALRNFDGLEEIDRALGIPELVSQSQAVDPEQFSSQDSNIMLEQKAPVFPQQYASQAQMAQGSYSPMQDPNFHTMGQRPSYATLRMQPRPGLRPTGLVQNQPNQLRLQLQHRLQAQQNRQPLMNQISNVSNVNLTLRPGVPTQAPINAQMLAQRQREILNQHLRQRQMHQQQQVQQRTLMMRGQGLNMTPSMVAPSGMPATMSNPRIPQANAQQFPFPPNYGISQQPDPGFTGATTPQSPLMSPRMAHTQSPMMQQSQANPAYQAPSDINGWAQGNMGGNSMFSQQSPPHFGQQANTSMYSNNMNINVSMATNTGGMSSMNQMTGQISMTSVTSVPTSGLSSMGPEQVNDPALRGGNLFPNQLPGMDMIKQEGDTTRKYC

[4] = target: Cytochrome P450 3A4 (Homo sapiens, UniProt P08684);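 further: CYP3A4 tested as one member of a cytochrome P450 panel screen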
Sequence of Cytochrome P450 3A4 (P08684 whole entry): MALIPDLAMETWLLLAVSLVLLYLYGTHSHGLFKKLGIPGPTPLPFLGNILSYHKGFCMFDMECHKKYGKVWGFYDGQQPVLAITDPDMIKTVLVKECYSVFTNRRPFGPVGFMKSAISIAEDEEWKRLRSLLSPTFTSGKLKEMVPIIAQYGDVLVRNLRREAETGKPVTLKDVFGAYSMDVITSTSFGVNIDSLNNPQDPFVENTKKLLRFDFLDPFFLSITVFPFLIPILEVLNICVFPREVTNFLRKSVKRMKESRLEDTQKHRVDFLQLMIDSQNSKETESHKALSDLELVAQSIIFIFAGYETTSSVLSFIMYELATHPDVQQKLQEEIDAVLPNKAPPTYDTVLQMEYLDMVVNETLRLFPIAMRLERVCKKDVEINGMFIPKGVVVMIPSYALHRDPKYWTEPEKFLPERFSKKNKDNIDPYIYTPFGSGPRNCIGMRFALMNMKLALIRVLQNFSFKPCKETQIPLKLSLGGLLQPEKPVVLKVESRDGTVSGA

[5] = inhibitors of intracellular T. cruzi replication, confirmation, NIH3T3 host cells, beta-gal luminescence (AID 2044); type: functional, cell-based;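 further: intracellular parasites grown in NIH/3T3 mouse fibroblasts as host cells; luminescent beta-galactosidase reporter signal from transgenic T. cruzi replicating inside host cells; inhibitors lower the luminescence signal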
[6] = cytotoxicity toward NIH3T3 fibroblasts, dose response, counter-screen, cell-based, ATP luminescence, mouse fibroblasts (AID 2010); type: functional;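 further: cells exposed to compound for about 90 hours before reading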
[7] = target: 26S proteasome non-ATPase regulatory subunit 14 (Homo sapiens, UniProt O00487); test: inhibition of proteasome subunit RPN11 – biochemical, fluorescence polarization, uHTS hits, confirmation (AID 602368); type: functional
Sequence of 26S proteasome non-ATPase regulatory subunit 14 (O00487 whole entry): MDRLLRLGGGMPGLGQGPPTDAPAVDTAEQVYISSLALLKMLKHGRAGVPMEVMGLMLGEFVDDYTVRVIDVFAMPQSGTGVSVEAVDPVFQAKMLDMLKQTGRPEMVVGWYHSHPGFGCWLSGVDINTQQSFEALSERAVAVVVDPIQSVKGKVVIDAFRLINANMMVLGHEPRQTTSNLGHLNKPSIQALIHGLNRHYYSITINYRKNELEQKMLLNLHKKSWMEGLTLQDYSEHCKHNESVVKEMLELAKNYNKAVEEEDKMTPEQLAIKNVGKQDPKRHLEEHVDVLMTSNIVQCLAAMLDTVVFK

[8] = target: 72 kDa type IV collagenase (Homo sapiens, UniProt P08253); test: Dose Response validation of uHTS RPN11 inhibitor hits using a MMP-2 Fluorescence assay.; type: functional
Sequence of 72 kDa type IV collagenase (P08253 whole entry): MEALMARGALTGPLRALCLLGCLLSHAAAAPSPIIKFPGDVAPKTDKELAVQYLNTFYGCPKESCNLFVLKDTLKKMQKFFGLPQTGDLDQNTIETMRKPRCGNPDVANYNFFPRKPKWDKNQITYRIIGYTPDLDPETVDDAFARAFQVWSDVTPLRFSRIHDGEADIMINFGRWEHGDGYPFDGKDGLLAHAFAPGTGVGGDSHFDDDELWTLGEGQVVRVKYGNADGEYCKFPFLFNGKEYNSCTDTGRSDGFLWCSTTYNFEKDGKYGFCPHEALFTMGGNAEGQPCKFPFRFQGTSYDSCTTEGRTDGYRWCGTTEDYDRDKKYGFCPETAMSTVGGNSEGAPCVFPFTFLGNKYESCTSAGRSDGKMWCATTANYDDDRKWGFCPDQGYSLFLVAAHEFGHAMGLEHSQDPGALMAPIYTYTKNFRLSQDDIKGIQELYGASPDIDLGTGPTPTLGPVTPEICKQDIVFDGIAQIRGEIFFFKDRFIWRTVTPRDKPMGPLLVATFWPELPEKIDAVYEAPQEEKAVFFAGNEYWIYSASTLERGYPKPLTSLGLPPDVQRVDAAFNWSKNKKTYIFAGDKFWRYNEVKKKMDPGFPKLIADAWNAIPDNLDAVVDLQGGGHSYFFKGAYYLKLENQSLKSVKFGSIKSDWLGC

[9] = target: Prothrombin (Bos taurus, UniProt P00735); test: thrombin inhibition, dose response, biochemical, fluorescence polarization, uHTS hits (AID 602369); type: functional
[10] = Luminescence Cell-Based Dose Retest to Confirm Inhibitors of Cancer Stem Cells. [Related pubchem assays (depositor defined):AID2717, AID2721]; type: functional; settings: Homo sapiens
[11] = test system: HEK293; test: inhibitors of LMP1-driven NF-kB reporter, dose response, cell-based, HEK293, luciferase, cherry-pick (AID 588343); type: functional; settings: Homo sapiens
[12] = test system: H9c2; test: cells; type: functional, cell-based; settings: Rattus norvegicus, H9c2, Myocardium;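 further: confirmatory concentration-response retest of ultra-high-throughput screening hits for modulation of myocardial damage; cell death induced by hydrogen peroxide oxidative stress; compound pretreatment for 60 min then peroxide exposure for 2 h; potency is for protecting the cells against peroxide damage rather than for killing them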
[13] = target: T1, Microphthalmia-associated transcription factor (Homo sapiens, UniProt O75030); test: TRPM1 promoter luciferase signal decrease, dose response, MITF inhibitor project, cell-based, SK-MEL-5, cherry-picked, set 3 (AID 493073); type: functional
T1 sequence (O75030 whole entry): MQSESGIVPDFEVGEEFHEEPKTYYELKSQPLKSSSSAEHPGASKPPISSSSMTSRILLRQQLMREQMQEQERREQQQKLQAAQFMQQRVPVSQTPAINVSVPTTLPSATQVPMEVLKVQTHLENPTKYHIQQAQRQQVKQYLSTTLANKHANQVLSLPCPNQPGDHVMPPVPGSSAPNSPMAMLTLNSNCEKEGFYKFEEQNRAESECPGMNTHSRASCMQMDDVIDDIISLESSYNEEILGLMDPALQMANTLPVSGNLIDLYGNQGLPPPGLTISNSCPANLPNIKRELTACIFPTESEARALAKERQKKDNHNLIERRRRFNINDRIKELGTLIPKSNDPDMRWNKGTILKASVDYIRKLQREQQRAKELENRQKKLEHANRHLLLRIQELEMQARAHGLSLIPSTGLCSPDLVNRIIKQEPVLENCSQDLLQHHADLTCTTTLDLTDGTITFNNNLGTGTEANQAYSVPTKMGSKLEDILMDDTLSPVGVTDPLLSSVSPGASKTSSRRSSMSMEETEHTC

[14] = Shn3 3'UTR reporter inhibitors, dose response, cell-based, Clone20 osteoblasts, firefly luciferase, cherry-picked (AID 624132); type: functional;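 further: firefly luciferase luminescence from reporter carrying the Shn3 3'UTR in osteoblasts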
[15] = HepG2 cell cytotoxicity, dose response, cytotoxicity control for Shn3 inhibitor project, CellTiter-Glo, cherry-picked (AID 624134); type: functional, cell-based
[16] = control 3'UTR Renilla luciferase suppression, dose response, counter-screen for Shn3 inhibitor project, cell-based, Clone20-Shn3RL, cherry-picked (AID 624133); type: functional

Question: Which EC50 [1] does the source give for `COc1cc2c(cc1OC)C1=NC(=O)CN1C(SCc1ccccc1C)=N2` here?
Answer: Its EC50 is > 79.4 µM (inactive).

Question: And the EC50 [2]?
Answer: Its EC50 is > 79.4 µM (not active).

Question: What about the EC50 [3] of the same compound?
Answer: Its EC50 is 82.7 µM (not active).

Question: With `Cc1cc(Cl)ccc1NC(=O)CN1CCC(C(O)(c2ccccc2)c2ccccc2)CC1` as the compound, how does the AC50 [4] read?
Answer: The AC50 was “inconclusive”.

Question: Which EC50 [5] does the source give for `Cl.OCCN1CCN(CCOc2cccc(Cl)c2)CC1` here?
Answer: Its EC50 is 0.413 µM (active).

Question: What about the EC50 [6] of the same compound?
Answer: The EC50 was > 60 µM (inconclusive).

Question: What about the AC50 [4] of the same compound?
Answer: Its AC50 is “inconclusive”.

Question: What does the source list for `O=C(CC1OC(=O)c2ccccc21)Nc1cc(Cl)ccc1N1CCCC1` (stereo not given)?
Answer: IC50 [7]: 14.1 µM (active); IC50 [8]: > 100 µM (inactive); IC50 [9]: > 100 µM (inactive)

Question: For `CCOC(=O)c1c(NC(=O)C(c2ccccc2)c2ccccc2)sc2c1C1CCN2CC1.Cl`, which EC50 [5] is on record?
Answer: The EC50 was 1.86 µM (active).

Question: What about the EC50 [6] of the same compound?
Answer: The EC50 was > 60 µM (not active).

Question: What about the AC50 [10] of the same compound?
Answer: The AC50 was 1.09 µM (active).

Question: What about the AC50 [4] of the same compound?
Answer: Its AC50 is “inconclusive”.

Question: Which AC50 [11] does the source give for `COc1ccc(-c2oc3ncnc(NCCN4CCOCC4)c3c2-c2ccc(OC)cc2)cc1` here?
Answer: The AC50 was 9.19 µM (active).

Question: What about the IC50 [12] of the same compound?
Answer: The IC50 was > 79 µM (inactive).

Question: With `Cc1ccc(-c2nnc(O)c3ccccc23)cc1S(=O)(=O)NCC1CCCO1` (stereo not given) as the compound, how does the AC50 [13] read?
Answer: The AC50 was 53.2 µM (active).

Question: And the IC50 [12]?
Answer: Its IC50 is 15.3 µM (active).

Question: What does the source list for `Cc1cc2c(cc(C(=O)OC(C(=O)NC3CCCCC3)C(C)C)n2C)o1` (stereo not given)?
Answer: AC50 [14]: 5.9 µM (active); AC50 [15]: 55.8 µM (active); AC50 [16]: 7.23 µM (active)

Question: With `COc1cccc(C(=O)CC(=O)C(=O)Nc2ccc(C)cc2Cl)c1` as the compound, how does the AC50 [11] read?
Answer: The AC50 was 35 µM (active).

Question: With `Cc1sc2nc(CSCC(=O)Nc3ccccc3C#N)[nH]c(=O)c2c1C` as the compound, how does the IC50 [7] read?
Answer: The IC50 was 6.2 µM (active).

Question: What about the IC50 [8] of the same compound?
Answer: The IC50 was > 100 µM (inactive).

Question: And the IC50 [9]?
Answer: Its IC50 is 8.26 µM (active).

— ChEMBL document CHEMBL1201862, “PubChem BioAssay data set” (2004)
